Earlier results on one compound are cited in patent publication US20170224936A1, “Nasal treatment delivery device with carbon dioxide and saline, and methods” (priority 2016, published 2017).

For data set [1] the following is noted: carbon dioxide gas treatments per Capnia prior art to Rasor et al.

On to `O=C=O` [CO(2), carbon dioxide], for which the severe stinging result in data set [1] is “had occurred”. For the same compound, the sneezes result (20-second exposure, compared with no treatment, p=0.05) is reported as “significant reduction”. For the same compound, the “histamine levels in ipsilateral nasal secretions” value (after pretreatment with CO(2)) was “did not increase”. Where the note is “compared with no treatment”, the ipsilateral secretion weights entry is reported as “numerically reduced”. Besides, the “bilateral runny nose symptoms” value (compared with no treatment, p=0.01) is given as “significant reduction”. In addition, the contralateral secretion weights entry (compared with no treatment, p=0.04) is reported as “significant reduction”. Further, where the note is “during exposure to CO(2)”, the sensation during exposure result is “transient burning sensation”.
